According to PubChem BioAssay AID652249 (Broad Institute, 2013):
Records with an inconclusive call do not appear. Active and inactive are the calls of the source.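 How the source made its calls: active means platelet aggregation inhibition above 50% relative to unstimulated and buffer-only controls; inactive means the rest, inconclusive results apart.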

Tested on: human washed platelets, SFLLRN-induced aggregation, aggregometer
Assay: blockade of human platelet clumping – cell-based, aggregometer, single point, dry powder samples, mechanism study for PDI inhibitor project, late-stage follow-up (AID 652249)
Settings: at 30 µM; stronger effect = higher value

| Structure (SMILES) | aggregation inhibition (transmittance) |
| --- | --- |
| O=C(NC1CCCC1)C1(CCOc2ccccc2)CCN(Cc2ccc(O)c(Cl)c2)CC1 | 1% (inactive) |
| CCOC(=O)C1(CCOc2ccccc2)CCN(Cc2ccc(OC)c(Cl)c2)CC1 | 4% (inactive) |
| C/C1=C\[C@@H](O)C(C)(C)CCCC2(C)OC2C[C@@H]1OC(=O)c1ccc(O)cc1 (stereo not given in full) | 17% (inactive) |
| O=C(Nc1ccccc1)C1(CCOc2ccccc2)CCN(Cc2ccc(O)c(Cl)c2)CC1 | 23% (inactive) |
| CC(C)(C)OC(=O)C1(CCOc2ccccc2)CCN(Cc2ccc(O)c(Cl)c2)CC1 | 100% |
| CC(C)OC(=O)C1(CCOc2ccccc2)CCN(Cc2ccc(O)c(Cl)c2)CC1 | 97% |
| CCOC(=O)C1(CCOc2ccccc2)CCN(Cc2ccc(O)cc2)CC1 | 0% (inactive) |
| CCOC(=O)C1(CCOc2ccccc2)CCN(C(=O)c2ccc(O)c(Cl)c2)CC1 | 100% |
| C/C1=C\C[C@H](OC(=O)c2ccc(O)cc2)/C(C)=C/[C@@H](O)C(C)(C)CCC1 | 100% |
| CCN(C)C(=O)C1(CCOc2ccccc2)CCN(Cc2ccc(O)c(Cl)c2)CC1 | 2% (inactive) |
